Results on one compound are retold here after PMC5218480 (PLoS ONE, 2017).

In the experiment the test system is MV-4-11 cells. The experiment in a line: Gene expression microarray analysis (Affymetrix PrimeView) and GSEA. The note with it: ProbeSet 11733108_at; LIST D. The arrangement: RFU PODN (11730768_x_at) / Fold change /veh PODN (11730768_x_at) / RFU LINC00158 (11744669_a_at) / Fold change /veh LINC00158 (11744669_a_at) / RFU DUSP10 (11751237_a_at) / Fold change /veh DUSP10 (11751237_a_at) / RFU ID3 (11757404_x_at) / Fold change /veh ID3 (11757404_x_at) / RFU PLEKHG5 (11737974_s_at) / Fold change /veh PLEKHG5 (11737974_s_at) / RFU LRRC4B (11730491_at) / Fold change /veh LRRC4B (11730491_at) / RFU GIMAP4 (11747438_a_at) / Fold change /veh GIMAP4 (11747438_a_at) / RFU KRT8 (11758183_x_at) / Fold change /veh KRT8 (11758183_x_at) / RFU CNN1 (11734310_a_at) / Fold change /veh CNN1 (11734310_a_at) / RFU VPS37D (11726825_at) / Fold change /veh VPS37D (11726825_at) / RFU C10orf10 (11716522_x_at) / Fold change /veh C10orf10 (11716522_x_at) / RFU KIR2DL2 /// KIR2DL4 /// KIR2DL5A /// KIR2DL5B /// KIR2DS1 /// KIR2DS2 /// KIR2DS3 /// KIR2DS4 /// KIR3DL3 /// KIR3DL3 /// KIR3DS1 (11738374_at) / Fold change /veh KIR2DL2 /// KIR2DL4 /// KIR2DL5A /// KIR2DL5B /// KIR2DS1 /// KIR2DS2 /// KIR2DS3 /// KIR2DS4 /// KIR3DL3 /// KIR3DL3 /// KIR3DS1 (11738374_at) / RFU C1QL1 (11718748_at) / Fold change /veh C1QL1 (11718748_at) / RFU TMPRSS4 (11747572_a_at) / Fold change /veh TMPRSS4 (11747572_a_at) / RFU HAMP (11756126_x_at) / Fold change /veh HAMP (11756126_x_at) / RFU RNFT2 (11725882_a_at) / Fold change /veh RNFT2 (11725882_a_at) / RFU NR4A2 (11747474_a_at) / Fold change /veh NR4A2 (11747474_a_at) / RFU ABCC12 (11746883_a_at) / Fold change /veh ABCC12 (11746883_a_at) / RFU TMEM136 (11760407_x_at) / Fold change /veh TMEM136 (11760407_x_at) / RFU CLDN22 /// WWC2 (11732394_at) / Fold change /veh CLDN22 /// WWC2 (11732394_at) / RFU HLA-DPB1 (11760878_x_at) / Fold change /veh HLA-DPB1 (11760878_x_at) / RFU SPINT1 (11716480_a_at) / Fold change /veh SPINT1 (11716480_a_at) / RFU GAP43 (11754022_s_at) / Fold change /veh GAP43 (11754022_s_at) / RFU A4GNT (11735810_at) / Fold change /veh A4GNT (11735810_at) / RFU PRB3 (11715151_x_at) / Fold change /veh PRB3 (11715151_x_at) / RFU TUBB4B (11761932_at) / Fold change /veh TUBB4B (11761932_at) / RFU CAPN14 (11732068_a_at) / Fold change /veh CAPN14 (11732068_a_at) / RFU TMCC2 (11721928_a_at) / Fold change /veh TMCC2 (11721928_a_at) / RFU IRGQ (11745062_a_at) / Fold change /veh IRGQ (11745062_a_at) / RFU FAM174B (11720279_a_at) / Fold change /veh FAM174B (11720279_a_at) / RFU TMPRSS4 (11748680_a_at) / Fold change /veh TMPRSS4 (11748680_a_at) / RFU FAM212B (11763350_a_at) / Fold change /veh FAM212B (11763350_a_at) / RFU PLEKHG5 (11743358_a_at) / Fold change /veh PLEKHG5 (11743358_a_at) / RFU ZSCAN30 (11745921_a_at) / Fold change /veh ZSCAN30 (11745921_a_at) / RFU CMKLR1 (11741424_a_at) / Fold change /veh CMKLR1 (11741424_a_at) / RFU LOC101060620 /// MAPK8IP1 (11723275_at) / Fold change /veh LOC101060620 /// MAPK8IP1 (11723275_at) / RFU SPTSSB (11747773_x_at) / Fold change /veh SPTSSB (11747773_x_at) / RFU PRSS12 (11739890_at) / Fold change /veh PRSS12 (11739890_at) / RFU BIN1 (11741810_x_at) / Fold change /veh BIN1 (11741810_x_at) / RFU WNT11 (11732464_a_at) / Fold change /veh WNT11 (11732464_a_at) / RFU C10orf10 (11716521_a_at) / Fold change /veh C10orf10 (11716521_a_at) / RFU C5orf56 (11738089_at) / Fold change /veh C5orf56 (11738089_at) / RFU CYB561 (11721691_x_at) / Fold change /veh CYB561 (11721691_x_at) / RFU ANKRD19P (11752326_a_at) / Fold change /veh ANKRD19P (11752326_a_at) / RFU OR2T12 /// OR2T33 /// OR2T8 (11738714_s_at) / Fold change /veh OR2T12 /// OR2T33 /// OR2T8 (11738714_s_at) / RFU VCAN (11748164_a_at) / Fold change /veh VCAN (11748164_a_at) / RFU JSRP1 (11732532_at) / Fold change /veh JSRP1 (11732532_at) / RFU KRTAP10-11 (11738290_x_at) / Fold change /veh KRTAP10-11 (11738290_x_at) / RFU MYO3A (11730013_a_at) / Fold change /veh MYO3A (11730013_a_at) / RFU EBF3 (11725865_a_at) / Fold change /veh EBF3 (11725865_a_at) / RFU CAMK2N1 (11719241_x_at) / Fold change /veh CAMK2N1 (11719241_x_at) / RFU C5orf56 (11738088_a_at) / Fold change /veh C5orf56 (11738088_a_at) / RFU OLFML3 (11715873_a_at) / Fold change /veh OLFML3 (11715873_a_at) / RFU LOC100653217 /// NTM (11731650_a_at) / Fold change /veh LOC100653217 /// NTM (11731650_a_at) / RFU MAPK11 (11762145_a_at) / Fold change /veh MAPK11 (11762145_a_at) / RFU FIZ1 (11724087_x_at) / Fold change /veh FIZ1 (11724087_x_at) / RFU OASL (11726364_x_at) / Fold change /veh OASL (11726364_x_at) / RFU SOX15 (11748057_x_at) / Fold change /veh SOX15 (11748057_x_at) / RFU CD79A (11719716_a_at) / Fold change /veh CD79A (11719716_a_at) / RFU HIST1H1D (11736915_at) / Fold change /veh HIST1H1D (11736915_at) / RFU CASKIN2 (11723855_a_at) / Fold change /veh CASKIN2 (11723855_a_at) / RFU LOC730098 (11760151_x_at) / Fold change /veh LOC730098 (11760151_x_at) / RFU OR4N2 (11742367_at) / Fold change /veh OR4N2 (11742367_at) / RFU PRRT2 (11749266_a_at) / Fold change /veh PRRT2 (11749266_a_at) / RFU SNX32 (11753110_a_at) / Fold change /veh SNX32 (11753110_a_at) / RFU CDHR5 (11726645_a_at) / Fold change /veh CDHR5 (11726645_a_at) / RFU RCAN1 (11760418_a_at) / Fold change /veh RCAN1 (11760418_a_at) / RFU FAM167A (11723789_a_at) / Fold change /veh FAM167A (11723789_a_at) / RFU FAM26E (11764081_at) / Fold change /veh FAM26E (11764081_at) / RFU ISYNA1 (11749810_s_at) / Fold change /veh ISYNA1 (11749810_s_at) / RFU ACY1 (11761880_at) / Fold change /veh ACY1 (11761880_at) / RFU 11764098_at / Fold change /veh 11764098_at / RFU SAMD14 (11745864_x_at) / Fold change /veh SAMD14 (11745864_x_at) / RFU NPB (11741838_a_at) / Fold change /veh NPB (11741838_a_at) / RFU TMPRSS6 (11731388_a_at) / Fold change /veh TMPRSS6 (11731388_a_at) / RFU KRTAP10-2 (11738614_at) / Fold change /veh KRTAP10-2 (11738614_at) / RFU ARHGAP8 /// PRR5-ARHGAP8 (11727945_x_at) / Fold change /veh ARHGAP8 /// PRR5-ARHGAP8 (11727945_x_at) / RFU KRTAP5-7 /// NADSYN1 (11734609_at) / Fold change /veh KRTAP5-7 /// NADSYN1 (11734609_at) / RFU RASL12 (11751679_a_at) / Fold change /veh RASL12 (11751679_a_at) / RFU CDKN2B (11736163_a_at) / Fold change /veh CDKN2B (11736163_a_at) / RFU PRF1 (11729649_at) / Fold change /veh PRF1 (11729649_at) / RFU, ZNF638 /// ZNF638-IT1 / Fold change vs veh, ZNF638 /// ZNF638-IT1 / RFU, PANK3 / Fold change vs veh, PANK3 / RFU, SH3YL1 / Fold change vs veh, SH3YL1 / RFU, ZEB2 / Fold change vs veh, ZEB2 / RFU, NRIP1 / Fold change vs veh, NRIP1 / RFU, PTTG1IP / Fold change vs veh, PTTG1IP / RFU, CAPN2 / Fold change vs veh, CAPN2 / RFU, MED14 / Fold change vs veh, MED14 / RFU, SNORA58 / Fold change vs veh, SNORA58 / RFU, C1orf63 / Fold change vs veh, C1orf63 / RFU, LRRFIP1 / Fold change vs veh, LRRFIP1 / RFU, NDUFAF7 / Fold change vs veh, NDUFAF7 / RFU, SLC12A2 / Fold change vs veh, SLC12A2 / RFU, IBTK / Fold change vs veh, IBTK / RFU, ESF1 / Fold change vs veh, ESF1 / Fold change vs veh, TMEM50B / RFU, TAOK1 / Fold change vs veh, TAOK1 / RFU, ACBD3 / Fold change vs veh, ACBD3 / RFU, TMA16 / Fold change vs veh, TMA16 / RFU, RWDD3 / Fold change vs veh, RWDD3 / RFU, BCAT1 / Fold change vs veh, BCAT1 / RFU, EDEM3 / Fold change vs veh, EDEM3 / RFU, TMEM33 / Fold change vs veh, TMEM33 / RFU, WDR75 / Fold change vs veh, WDR75 / RFU, AHCTF1 / Fold change vs veh, AHCTF1 / RFU, TFRC / Fold change vs veh, TFRC / RFU, ZDHHC17 / Fold change vs veh, ZDHHC17 / RFU, NOM1 / Fold change vs veh, NOM1 / RFU, ARL8B / Fold change vs veh, ARL8B / RFU, ZBTB11 / Fold change vs veh, ZBTB11 / RFU, TAMM41 / Fold change vs veh, TAMM41 / RFU, KIAA1704 /// LOC100996395 / Fold change vs veh, KIAA1704 /// LOC100996395 / RFU, ING1 / Fold change vs veh, ING1 / RFU, TRMT61B / Fold change vs veh, TRMT61B / RFU, FUBP3 / Fold change vs veh, FUBP3 / RFU, TP53 / Fold change vs veh, TP53 / RFU, TNKS2 / Fold change vs veh, TNKS2 / RFU, ZFP14 / Fold change vs veh, ZFP14 / RFU, ACTR2 / Fold change vs veh, ACTR2 / RFU, PPP3R1 / Fold change vs veh, PPP3R1 / RFU, PIK3R1 / Fold change vs veh, PIK3R1 / RFU, HNRNPA1 / Fold change vs veh, HNRNPA1 / RFU, RNF170 / Fold change vs veh, RNF170 / RFU, ZNF28 / Fold change vs veh, ZNF28 / RFU, RNGTT / Fold change vs veh, RNGTT / RFU, OGT / Fold change vs veh, OGT / RFU, BRD1 / Fold change vs veh, BRD1 / RFU, MARS / Fold change vs veh, MARS / RFU, ZNF655 / Fold change vs veh, ZNF655 / RFU, FAHD1 / Fold change vs veh, FAHD1 / RFU, BDP1 / Fold change vs veh, BDP1 / RFU, LRRCC1 / Fold change vs veh, LRRCC1 / RFU, ARID1A / Fold change vs veh, ARID1A / RFU, ZNF146 / Fold change vs veh, ZNF146 / RFU, ZNF330 / Fold change vs veh, ZNF330 / RFU, GPN3 / Fold change vs veh, GPN3 / RFU, C9orf123 / Fold change vs veh, C9orf123 / RFU, N4BP2L2 / Fold change vs veh, N4BP2L2 / RFU, ARFIP1 / Fold change vs veh, ARFIP1 / RFU, FAM179B / Fold change vs veh, FAM179B / RFU, BCL10 / Fold change vs veh, BCL10 / RFU, UHRF1BP1L / Fold change vs veh, UHRF1BP1L / RFU, BET1 / Fold change vs veh, BET1 / RFU, CNOT2 / Fold change vs veh, CNOT2 / RFU, ZNF268 / Fold change vs veh, ZNF268 / Fold change vs veh, ZNF507 / RFU, DGCR2 / Fold change vs veh, DGCR2 / RFU, WDSUB1 / Fold change vs veh, WDSUB1 / Fold change vs veh, HSP90B1 /// MIR3652 / RFU, ADSS / Fold change vs veh, ADSS / RFU, GK / Fold change vs veh, GK / RFU, ZNF148 / Fold change vs veh, ZNF148 / RFU, TAF9 / Fold change vs veh, TAF9 / RFU, SLC1A5 / Fold change vs veh, SLC1A5 / RFU, SLMO2 / Fold change vs veh, SLMO2 / RFU, ABCC4 / Fold change vs veh, ABCC4 / RFU, LOC101060439 /// RAP1B / Fold change vs veh, LOC101060439 /// RAP1B / RFU, RFX7 / Fold change vs veh, RFX7 / RFU, GTPBP10 / Fold change vs veh, GTPBP10 / RFU, CNEP1R1 / Fold change vs veh, CNEP1R1 / RFU, BIVM-ERCC5 /// ERCC5 / Fold change vs veh, BIVM-ERCC5 /// ERCC5 / RFU, ILF3 / Fold change vs veh, ILF3 / RFU 11762660_at / Fold change /veh 11762660_at / RFU VCAN (11757783_s_at) / Fold change /veh VCAN (11757783_s_at) / RFU DDX43 (11728927_at) / Fold change /veh DDX43 (11728927_at) / RFU KRT8 (11758188_x_at) / Fold change /veh KRT8 (11758188_x_at) / RFU NKD1 (11759106_at) / Fold change /veh NKD1 (11759106_at) / RFU SRD5A1 (11742802_a_at) / Fold change /veh SRD5A1 (11742802_a_at) / RFU TPSAB1 /// TPSB2 (11721975_s_at) / Fold change /veh TPSAB1 /// TPSB2 (11721975_s_at) / RFU GSTM3 (11746129_a_at) / Fold change /veh GSTM3 (11746129_a_at) / RFU IL23R (11737362_x_at) / Fold change /veh IL23R (11737362_x_at) / RFU TMEM51 (11727254_a_at) / Fold change /veh TMEM51 (11727254_a_at) / RFU PIWIL2 (11732686_x_at) / Fold change /veh PIWIL2 (11732686_x_at) / RFU ORM1 (11744905_x_at) / Fold change /veh ORM1 (11744905_x_at) / RFU CCDC152 (11743942_at) / Fold change /veh CCDC152 (11743942_at) / RFU ECM1 (11717891_a_at) / Fold change /veh ECM1 (11717891_a_at) / RFU IL23R (11748794_a_at) / Fold change /veh IL23R (11748794_a_at) / RFU TNFAIP8L3 (11732012_x_at) / Fold change /veh TNFAIP8L3 (11732012_x_at) / RFU MBOAT4 (11741988_at) / Fold change /veh MBOAT4 (11741988_at) / RFU 11764193_at / Fold change /veh 11764193_at / RFU TMEM53 (11763286_at) / Fold change /veh TMEM53 (11763286_at) / RFU MAGEB2 (11727129_at) / Fold change /veh MAGEB2 (11727129_at) / RFU TMEM200A (11744735_a_at) / Fold change /veh TMEM200A (11744735_a_at) / RFU CCDC152 (11751479_a_at) / Fold change /veh CCDC152 (11751479_a_at) / RFU FAM211A (11726209_a_at) / Fold change /veh FAM211A (11726209_a_at) / RFU RGS16 (11746705_a_at) / Fold change /veh RGS16 (11746705_a_at) / RFU VCAN (11755009_s_at) / Fold change /veh VCAN (11755009_s_at) / RFU RHOB (11743442_s_at) / Fold change /veh RHOB (11743442_s_at) / RFU RGS16 (11720943_a_at) / Fold change /veh RGS16 (11720943_a_at) / RFU RGS16 (11720944_at) / Fold change /veh RGS16 (11720944_at) / RFU, VPS4B / Fold change vs veh, VPS4B / RFU, CREB1 / Fold change vs veh, CREB1 / RFU, DNAJC13 / Fold change vs veh, DNAJC13 / RFU, GNAQ / Fold change vs veh, GNAQ / RFU, CDK5R1 / Fold change vs veh, CDK5R1 / RFU, ZRANB3 / Fold change vs veh, ZRANB3 / RFU, CUL4A / Fold change vs veh, CUL4A / RFU, CCNY / Fold change vs veh, CCNY / RFU, UFL1 / Fold change vs veh, UFL1 / RFU, COG3 / Fold change vs veh, COG3 / RFU, DIAPH2 / Fold change vs veh, DIAPH2 / RFU, SKA2 / Fold change vs veh, SKA2 / RFU, AFF3 / Fold change vs veh, AFF3 / RFU, LMF1 / Fold change vs veh, LMF1 / RFU, IPO11 / Fold change vs veh, IPO11 / RFU, DFFB / Fold change vs veh, DFFB / RFU, FOXP1 / Fold change vs veh, FOXP1 / RFU, CARD8 / Fold change vs veh, CARD8 / RFU, STRN3 / Fold change vs veh, STRN3 / RFU, ADK / Fold change vs veh, ADK / RFU, RASSF2 / Fold change vs veh, RASSF2 / RFU, WIPF1 / Fold change vs veh, WIPF1 / RFU, LARP1B / Fold change vs veh, LARP1B / RFU, RASA1 / Fold change vs veh, RASA1 / RFU, RB1 / Fold change vs veh, RB1 / RFU, PPFIA1 / Fold change vs veh, PPFIA1 / RFU, MAT2A / Fold change vs veh, MAT2A / RFU, CCT5 / Fold change vs veh, CCT5 / RFU, WDR92 / Fold change vs veh, WDR92 / RFU, CUX1 / Fold change vs veh, CUX1 / RFU, TTC7A / Fold change vs veh, TTC7A / RFU, TMEM135 / Fold change vs veh, TMEM135 / RFU, DEPTOR / Fold change vs veh, DEPTOR / RFU, CPM / Fold change vs veh, CPM / RFU, DNAJB6 / Fold change vs veh, DNAJB6 / RFU, CACNA2D3 / Fold change vs veh, CACNA2D3 / RFU, DTX4 / Fold change vs veh, DTX4 / RFU, TFCP2 / Fold change vs veh, TFCP2 / RFU, GMCL1 /// GMCL1P1 / Fold change vs veh, GMCL1 /// GMCL1P1 / RFU, AEBP2 / Fold change vs veh, AEBP2 / RFU, SNHG1 /// SNORD22 /// SNORD25 /// SNORD26 /// SNORD27 /// SNORD28 /// SNORD29 /// SNORD31 / Fold change vs veh, SNHG1 /// SNORD22 /// SNORD25 /// SNORD26 /// SNORD27 /// SNORD28 /// SNORD29 /// SNORD31 / Fold change (Aza/veh), C12orf56 (ProbeSet 11735607_a_at) / Fold change (ACY-1035/veh), C12orf56 (ProbeSet 11735607_a_at) / Fold change (Aza/veh), FGFR1OP (ProbeSet 11751329_s_at) / Fold change (ACY-1035/veh), FGFR1OP (ProbeSet 11751329_s_at) / Fold change (Aza/veh), VPS36 (ProbeSet 11739960_a_at) / Fold change (ACY-1035/veh), VPS36 (ProbeSet 11739960_a_at) / RFU SYPL1 (11715823_x_at) / Fold change /veh SYPL1 (11715823_x_at) / RFU IGFBP7 (11715501_s_at) / Fold change /veh IGFBP7 (11715501_s_at) / RFU REEP3 (11722064_at) / Fold change /veh REEP3 (11722064_at) / RFU IGLL1 (11728026_x_at) / Fold change /veh IGLL1 (11728026_x_at): dose or concentration left out as unconfirmed. The experiment is classed as cell-based, human.

With `Nc1ccc(-c2cccs2)cc1NC(=O)c1ccc2c(c1)cc(C1CC1)n2CCN1CCOCC1` [ACY-1035], the “RFU, GNAQ” value is listed as 275.03 RFU.
